Here are results for 10 compounds from ChEMBL document CHEMBL1201862, “PubChem BioAssay data set” (2004).

Some test systems named below: SF-295; A498; SK-MEL-2; U-251; OVCAR-5; EKVX; SNB-75; SF-268; MOLT-4; LOX IMVI; PC-3; OVCAR-4; NCI/ADR-RES; HCT-15; SNB-19; TK-10; HOP-62; Malme-3M; NCI-H522; RPMI-8226.
What all share (assay): DTP human tumour cell line panel, 48 h

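Briefly, cells in 96-well plates were exposed to five compound concentrations for 48 h, and endpoints were estimated by linear interpolation. The concentration for 50% growth inhibition is given as GI50.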 Activity calls are given as the source filed them. Cut-off read from the data, not from the text of the source: active = GI50 up to about 1.1 µM and inactive = higher.

As usually defined, the GI50 is the concentration giving 50% growth inhibition. For the compound `N#Cc1c(-c2ccc(Cl)cc2)cc(-c2ccc(Nc3ccnc4cc(Cl)ccc34)cc2)[nH]c1=O`, the GI50 in the experiment on SF-295 was 16.6 µM (inactive); in the experiment with A498, 50.4 µM (inactive); in the experiment on SK-MEL-2, 31.4 µM (inactive); with U-251, 15.5 µM (inactive); in the experiment on OVCAR-5 it was > 61.7 µM (inactive); with EKVX it was > 82.2 µM (inactive). Besides, the GI50 in the experiment on SNB-75 is 14.6 µM (inactive); in the experiment with SF-268, 26.2 µM (inactive); in the experiment on MOLT-4, > 58.6 µM (inactive); in the experiment with LOX IMVI it was 31.6 µM (inactive); in the experiment on PC-3, > 100 µM (inactive); in the experiment with OVCAR-4, > 100 µM (inactive). Also, the GI50 is > 100 µM (inactive) in the experiment with NCI/ADR-RES; greater than 100 µM with HCT-15; 27.7 µM (inactive) with SNB-19; 13.1 µM (inactive) in the experiment with TK-10; 15.1 µM (inactive) with HOP-62; > 65.8 µM (inactive) with Malme-3M. Besides, the GI50 with NCI-H522 was > 38.6 µM (inactive); in the experiment with RPMI-8226, > 62.5 µM (inactive).

On to `COC(=O)C1=C(C)NC2(C)OC(C)(O)C(C(C)=O)C12C(C)=O` (stereo not given), for which the GI50 with SF-295 is 32.1 µM (inactive); in the experiment with A498 it was 60.5 µM (inactive); in the experiment with SK-MEL-2, 21.4 µM (inactive); in the experiment with U-251, 43.7 µM (inactive); in the experiment with OVCAR-5, 31.5 µM (inactive); in the experiment with EKVX, > 100 µM (inactive). Further, the GI50 is 71.8 µM (inactive) in the experiment with SNB-75; 28.1 µM (inactive) in the experiment with SF-268; > 100 µM (inactive) in the experiment with MOLT-4; 89.5 µM (inactive) with LOX IMVI; 13.9 µM (inactive) with PC-3; > 100 µM (inactive) with OVCAR-4. Besides, the GI50 in the experiment with NCI/ADR-RES was > 100 µM (inactive); with HCT-15 it was greater than 100 µM; in the experiment on SNB-19 it was > 100 µM (inactive); in the experiment on TK-10 it was > 100 µM (inactive); with HOP-62, > 100 µM (inactive); in the experiment with Malme-3M it was 23.4 µM (inactive). In addition, the values for the GI50 with NCI-H522 and in the experiment on RPMI-8226 were > 100 µM (inactive) and 61.1 µM (inactive), respectively.

In the case of `C=C(Cl)C(Cl)(CBr)CCC(Cl)C(C)(C)Cl` (stereo not given), the GI50 in the experiment with SF-295 is 3.17 µM (inactive); in the experiment on A498, 1.77 µM (inactive); in the experiment with SK-MEL-2 it was 0.238 µM (active); in the experiment on U-251 it was 0.597 µM (active); in the experiment on OVCAR-5 it was 2.83 µM (inactive); in the experiment with EKVX, 8.38 µM (inactive). Moreover, the 50% growth inhibitory concentration (GI50) was 0.23 µM (active) in the experiment on SNB-75; 1.08 µM (active) in the experiment on SF-268; 17.7 µM (inactive) in the experiment with MOLT-4; 12.9 µM (inactive) in the experiment on LOX IMVI; 1.53 µM (inactive) with PC-3; 1.09 µM (active) in the experiment on OVCAR-4. Moreover, the GI50 was 3.01 µM (inactive) in the experiment on NCI/ADR-RES; 3.57 µM with HCT-15; 2.26 µM (inactive) with SNB-19; 1.14 µM (inactive) in the experiment on TK-10; 1.11 µM (active) in the experiment on HOP-62; 7.24 µM (inactive) in the experiment on Malme-3M. Also, the GI50 with NCI-H522 was 8.2 µM (inactive); in the experiment with RPMI-8226, 0.112 µM (active).

`O=C(N/N=C\c1ccc(Cl)cc1)Nc1ccc2ccccc2c1`: the GI50 is > 10 µM (inactive) in the experiment on SF-295; 30.9 µM (inactive) in the experiment with A498; 80.4 µM (inactive) with SK-MEL-2; 23.9 µM (inactive) in the experiment with U-251; 71.6 µM (inactive) with OVCAR-5; 64.9 µM (inactive) in the experiment with EKVX. Moreover, the GI50 in the experiment on SNB-75 is 30.5 µM (inactive); in the experiment with SF-268 it was 26.9 µM (inactive); with MOLT-4, > 100 µM (inactive); with LOX IMVI it was > 100 µM (inactive); with PC-3 it was 30.3 µM (inactive); in the experiment with OVCAR-4, 19.8 µM (inactive). Further, the GI50 was 49.3 µM (inactive) with NCI/ADR-RES; greater than 100 µM in the experiment on HCT-15; 30.4 µM (inactive) with SNB-19; 55.5 µM (inactive) in the experiment on TK-10; 21.9 µM (inactive) in the experiment with HOP-62; 32.8 µM (inactive) in the experiment with Malme-3M. Further, the values for the GI50 in the experiment on NCI-H522 and in the experiment with RPMI-8226 were 38.9 µM (inactive) and 70.8 µM (inactive), respectively.

Take `CN1[C@@H]2CCCC[C@H]2N(C)P1(=O)C(O)/C=C/c1ccccc1` (stereo not given in full): the GI50 in the experiment on SF-295, in the experiment on A498, with SK-MEL-2, with U-251, in the experiment with OVCAR-5 and in the experiment on EKVX was > 100 µM (inactive) each time. For the same compound, the GI50 with SNB-75, in the experiment on SF-268, in the experiment with MOLT-4, in the experiment with LOX IMVI, with PC-3 and in the experiment with OVCAR-4 was > 100 µM (inactive) in each case. Moreover, the GI50 in the experiment with NCI/ADR-RES was > 100 µM (inactive); in the experiment on HCT-15, greater than 100 µM; in the experiment on SNB-19 it was > 100 µM (inactive); in the experiment on TK-10, > 100 µM (inactive); with HOP-62, > 100 µM (inactive); in the experiment on Malme-3M, > 100 µM (inactive). The GI50 in the experiment with NCI-H522 and in the experiment with RPMI-8226 was > 100 µM (inactive) each time.

`CC(=O)OC1COC(n2nc(/C=C/c3ccc(Cl)cc3)c(=O)n(/N=C/c3ccccc3)c2=S)C(OC(C)=O)C1OC(C)=O` (stereo not given): the GI50 with SF-295, in the experiment with A498, with SK-MEL-2, in the experiment on U-251, in the experiment with OVCAR-5 and in the experiment with EKVX was > 100 µM (inactive) each time. Moreover, the GI50 with SNB-75, in the experiment on SF-268, in the experiment with MOLT-4, in the experiment on LOX IMVI, in the experiment on PC-3 and in the experiment on OVCAR-4 was > 100 µM (inactive) in each case. The GI50 in the experiment with NCI/ADR-RES is > 100 µM (inactive); in the experiment with HCT-15, greater than 100 µM; with SNB-19, > 100 µM (inactive); in the experiment on TK-10, > 100 µM (inactive); in the experiment with HOP-62, > 100 µM (inactive); in the experiment on Malme-3M, > 100 µM (inactive). In addition, the GI50 in the experiment with NCI-H522 and in the experiment with RPMI-8226 was > 100 µM (inactive) each time.

Take `COc1cccc2c(Nc3ccc(S(=O)(=O)NC(C)=O)cc3)c3ccc([N+](=O)[O-])cc3nc12`: the GI50 was > 88.3 µM (inactive) with SF-295; 56.8 µM (inactive) with A498; 49.9 µM (inactive) in the experiment on SK-MEL-2; 23.7 µM (inactive) with U-251; > 66.5 µM (inactive) with OVCAR-5; 40.6 µM (inactive) in the experiment on EKVX. The GI50 with SNB-75 was 8.28 µM (inactive); in the experiment with SF-268, 25.1 µM (inactive); in the experiment with MOLT-4, 17.2 µM (inactive); in the experiment on LOX IMVI it was 37.2 µM (inactive); in the experiment on PC-3 it was 20.4 µM (inactive); with OVCAR-4, 97.7 µM (inactive). The GI50 in the experiment with NCI/ADR-RES was > 57.1 µM (inactive); with HCT-15 it was 47 µM; with SNB-19, > 45 µM (inactive); with TK-10, 22.4 µM (inactive); in the experiment on HOP-62, > 78.2 µM (inactive); in the experiment with Malme-3M it was 33.9 µM (inactive). Further, the GI50 in the experiment with NCI-H522 is 17.5 µM (inactive); with RPMI-8226 it was 16.3 µM (inactive).

As for `CCOP1(=O)C=C(Sc2ccc([N+](=O)[O-])cc2[N+](=O)[O-])C(C)(C)O1` (stereo not given), the GI50 in the experiment on SF-295 is 17.9 µM (inactive); in the experiment with A498, 25.6 µM (inactive); in the experiment on SK-MEL-2, 11.3 µM (inactive); with U-251 it was 14.9 µM (inactive); in the experiment on OVCAR-5 it was 21.2 µM (inactive); in the experiment with EKVX it was 14.4 µM (inactive). Moreover, the GI50 was 19.8 µM (inactive) in the experiment on SNB-75; 17.6 µM (inactive) in the experiment with SF-268; 4.13 µM (inactive) in the experiment with MOLT-4; 3.83 µM (inactive) in the experiment with LOX IMVI; 11.9 µM (inactive) in the experiment on PC-3; 13.5 µM (inactive) in the experiment with OVCAR-4. The GI50 is 25.3 µM (inactive) with NCI/ADR-RES; 14.7 µM with HCT-15; 27.6 µM (inactive) in the experiment on SNB-19; 17.1 µM (inactive) in the experiment on TK-10; 27.9 µM (inactive) in the experiment with HOP-62; 12 µM (inactive) in the experiment on Malme-3M. In addition, the GI50 is 3.64 µM (inactive) in the experiment with NCI-H522 and 5.25 µM (inactive) in the experiment on RPMI-8226.

With `CCCN(CCCCN1C(=O)c2ccccc2C1=O)CC1COc2ccccc2O1` (stereo not given), the GI50 in the experiment on SF-295 is > 100 µM (inactive); in the experiment with A498 it was > 100 µM (inactive); in the experiment with SK-MEL-2, > 100 µM (inactive); with U-251, 74 µM (inactive); with OVCAR-5 it was > 100 µM (inactive); in the experiment on EKVX, > 100 µM (inactive). Besides, the GI50 in the experiment with SNB-75 is > 100 µM (inactive); in the experiment with SF-268, > 100 µM (inactive); in the experiment on MOLT-4 it was 23.3 µM (inactive); in the experiment on LOX IMVI, > 100 µM (inactive); in the experiment on PC-3 it was 51.9 µM (inactive); in the experiment with OVCAR-4, > 100 µM (inactive). Further, the GI50 in the experiment on NCI/ADR-RES is 61.1 µM (inactive); with HCT-15 it was 52.2 µM; in the experiment on SNB-19, > 100 µM (inactive); with TK-10 it was > 100 µM (inactive); in the experiment with HOP-62 it was > 100 µM (inactive); in the experiment on Malme-3M, > 100 µM (inactive). In addition, the GI50 with NCI-H522 was > 100 µM (inactive); with RPMI-8226 it was 26.4 µM (inactive).

Regarding `Nc1ccn(C=C=CCO)c(=O)n1`, the GI50 with SF-295, in the experiment with A498, in the experiment on SK-MEL-2, with U-251, in the experiment with OVCAR-5 and with EKVX was > 100 µM (inactive) each time. Moreover, the GI50 with SNB-75 is > 93.8 µM (inactive); with SF-268, > 100 µM (inactive); in the experiment on MOLT-4 it was 5.85 µM (inactive); in the experiment on LOX IMVI, > 100 µM (inactive); with PC-3, > 100 µM (inactive); with OVCAR-4, > 100 µM (inactive). Also, the GI50 was > 100 µM (inactive) in the experiment on NCI/ADR-RES; greater than 100 µM in the experiment on HCT-15; > 100 µM (inactive) with SNB-19; > 100 µM (inactive) with TK-10; > 100 µM (inactive) with HOP-62; > 100 µM (inactive) in the experiment with Malme-3M. The GI50 is > 77.3 µM (inactive) in the experiment with NCI-H522 and 589 µM (inactive) in the experiment with RPMI-8226.
